According to patent publication US20070249590A1, “Substituted indolo[2,3-a]pyrrolo[3,4-c]carbazole compounds useful in treating kinase disorders” (priority 2005, published 2007):

Each compound was assayed against T1, JAK3 (JH1 and JH2 domain) (Homo sapiens, UniProt P52333) (assay: JAK3 Kinase Assay (ELISA of peptide substrate phosphorylation)). Details: purified JAK3 enzyme, 10 μM ATP, biotinylated peptide substrate, 1 hour at room temperature.
T1 sequence (P52333 521-1111 limits assumed): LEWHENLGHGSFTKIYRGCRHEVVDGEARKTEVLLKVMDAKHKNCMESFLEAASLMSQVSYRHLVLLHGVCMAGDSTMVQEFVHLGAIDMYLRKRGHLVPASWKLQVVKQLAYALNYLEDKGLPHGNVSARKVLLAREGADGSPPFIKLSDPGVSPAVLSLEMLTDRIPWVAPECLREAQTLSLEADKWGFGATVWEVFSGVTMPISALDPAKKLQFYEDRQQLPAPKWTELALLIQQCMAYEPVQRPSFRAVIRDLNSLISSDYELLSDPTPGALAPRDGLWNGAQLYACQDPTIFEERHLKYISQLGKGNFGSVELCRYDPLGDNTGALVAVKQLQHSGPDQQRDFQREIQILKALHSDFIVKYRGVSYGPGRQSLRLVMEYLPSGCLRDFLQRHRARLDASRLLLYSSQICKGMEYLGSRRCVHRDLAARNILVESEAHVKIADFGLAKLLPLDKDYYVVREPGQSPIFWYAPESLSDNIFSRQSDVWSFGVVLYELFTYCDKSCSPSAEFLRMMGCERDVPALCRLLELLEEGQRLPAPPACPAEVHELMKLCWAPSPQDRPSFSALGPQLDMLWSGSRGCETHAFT
Assay type: biochemical
Procedure: JAK3 enzyme activity was assayed relative to enzyme phosphorylation using the method described herein.
Sf21 cells derived from the ovarian tissue of the fall armyworm Spodotera frugiperda were obtained from Pharmingen (San Diego, Calif.) and maintained at a temperature of about 26-28° C. in 1 l Bellco spinner flasks at 60-90 rpm. Cell viability was maintained at 95-100%, as determined by a tryptan blue dye exclusion test.
Sf21 cells were infected with a baculovirus expression vector for JAK3 (JH1 and JH2 domain). After 48 hours of infection, cells were harvested and lysed in Tris-saline (pH 7.6) containing 2% NP-40 and a combination of protease inhibitors (Aprotinin, Pepstatin A, Pefabloc, E-64, Leupeptin, and Benzamidine) on ice for 45 minutes.
The JAK3 enzyme was purified from the lysate using glutathione sepharose beads and the enzyme activity was assessed in Costar flat bottom EIA/RIA 96 well plates. The plates were coated with Neutravidin (110 μL) (Pierce Neutravidin Biotin-binding Protein 31000; 1 mg/mL 1:100) diluted in PBS for 1 hour at room temperature. The plates were washed with PBS-0.1% Tween (3 times) to remove unbound Neutravidin, then 1% BSA (150 NIL) in PBS was added to each well to block non-specific binding. The plates was incubated for 1 hour at room temperature and stored at −80° C. until use.
JAK3 enzyme solution (48 μL) in 1.25×TK buffer (62.5 mM HEPES pH 7.5, 12.5 mM MgCl2) containing DTT (42 mM) (Sigma, St. Louis, Mo.) was added to each well of a polypropylene 96 well plate.
A test compound (5 μL) diluted in DMSO (48 μL) and biotinylated peptide enzyme substrate (5 μg diluted in TK buffer containing 10 μM ATP) were added to each well using the double dispense feature of a multichannel electronic biohit. Control wells received DMSO vehicle (5 μL). The contents of the wells were mixed for approximately 8 seconds using a multitube vortexer and the reaction mixture was incubated for 1 hour at room temperature.
After incubation, an aliquot of reaction mixture (90 μL) was transferred into a washed Neutravidin coated plate. The plate was incubated for 15 minutes at room temperature and washed 3 times with PBS-T. PY99 anti-phosphotyrosine antibody (100 μL/well) (Santa Cruz #sc-7020HRP diluted 1:6000 in 1× antibody buffer) was added into each well and the plate was incubated for 40 minutes at room temperature. The antibody buffer contained 10% BSA, 100 mM Tris (pH 7.5), 1M NaCl and 1% Tween 20. The plate washed 3 times with PBS-T, then TMB (100 pLXSigma, St. Louis, Mo.) was added to the each well. The plate was incubated for another 40 mins at room temperature in the dark. The reaction was stopped by the addition of 1M H2SO4 (50 μL/well) and the optical density was read at 450/650 nm.
Test compounds were assayed in triplicate at 16 concentrations at half-log dilutions starting at 200 μM. A maximum and minimum signal for the assay was determined on each plate. The percent inhibition of a test compound was calculated according to the formula [formula]
For a series of test concentrations, the IC50 was derived by graphing percent inhibition against the log of the concentrations tested for a given compound. For those compounds without an IC50, the percent inhibition results are shown at a test concentration of 1 μM.

Row | IC50 | SMILES
1 | 4.36 µM | O=C1NCc2c1c1c3ccccc3n3c1c1c2c2ccccc2n1CCC(OC(=O)N1CCN(c2ccncc2)CC1)CC3 (centres unmarked) [Cpd 184, 12,13-{3-[(4-pyridin-4-yl-piperazin-1-yl)carbonyloxy]-pentan-1,5-yl}-6,7,12,13-tetrahydro-5-oxo-5H-indolo[2,3-a]pyrrolo[3,4-c]carbazole]
2 | 0.038 µM | O=C1NC(=O)c2c1c1c3ccccc3n3c1c1c2c2ccccc2n1CC(OC(=O)N1CCOCC1)CC3 (centres unmarked) [Cpd 71, 12,13-[2-(morpholin-4-yl-carbonyloxy)-butan-1,4-yl]-12,13-dihydro-5,7-dioxo-6H-indolo[2,3-a]pyrrolo[3,4-c]carbazole]
3 | 0.175 µM | CN(C)CCCN1CCN(C(=O)OC2Cn3c4ccccc4c4c5c(c6c7ccccc7n(c6c43)CC2O)C(=O)NC5=O)CC1 (centres unmarked) [Cpd 97, 12,13-(2-{[4-(3-dimethylamino-prop-1-yl)piperazin-1-yl]carbonyloxy}-3-hydroxy-butan-1,4-yl)-12,13-dihydro-5,7-dioxo-6H-indolo[2,3-a]pyrrolo[3,4-c]carbazole]
4 | 0.054 µM | O=C1NC(=O)c2c1c1c3ccccc3n3c1c1c2c2ccccc2n1CC(O)(C(=O)N1CCN(CC(=O)N2CCCC2)CC1)C(O)C3 (centres unmarked) [Cpd 133, 12,13-(2-{[4-(pyrrolidin-1-yl-carbonylmethyl)piperazin-1-yl]carbonyl}-2,3-dihydroxy-butan-1,4-yl)-12,13-dihydro-5,7-dioxo-6H-indolo[2,3-a]pyrrolo[3,4-c]carbazole]
5 | 0.156 µM | O=C1NC(=O)c2c1c1c3ccccc3n3c1c1c2c2ccccc2n1CC(OC(=O)N1CCCNCC1)CC3 (centres unmarked) [Cpd 60, 12,13-{2-[(hexahydro-1H-1,4-diazepin-1-yl)carbonyloxy]-butan-1,4-yl}-12,13-dihydro-5,7-dioxo-6H-indolo[2,3-a]pyrrolo[3,4-c]carbazole]
6 | 0.007 µM | Nc1ccc2c(c1)c1c3c(c4c5ccccc5n5c4c1n2CC(O)C(O)C5)CNC3=O (centres unmarked) [Cpd 192, 3-amino-12,13-(2,3-dihydroxy-butan-1,4-yl)-6,7,12,13-tetrahydro-5-oxo-5H-indolo[2,3-a]pyrrolo[3,4-c]carbazole]
7 | 1.08 µM | O=C1NC(=O)c2c1c1c3ccccc3n3c1c1c2c2ccccc2n1CC(OC(=O)N1CCN(c2ccccn2)CC1)C(O)C3 (centres unmarked) [Cpd 112, 12,13-{2-[(4-pyridin-2-yl-piperazin-1-yl)carbonyloxy]-3-hydroxy-butan-1,4-yl}-12,13-dihydro-5,7-dioxo-6H-indolo[2,3-a]pyrrolo[3,4-c]carbazole]
8 | 0.179 µM | COc1ccccc1CNC(=O)OC1Cn2c3ccccc3c3c4c(c5c6ccccc6n(c5c32)CC1O)C(=O)NC4=O (centres unmarked) [Cpd 78, 12,13-{2-[(2-methoxy-benzyl)carbamoyloxy]-3-hydroxy-butan-1,4-yl}-12,13-dihydro-5,7-dioxo-6H-indolo[2,3-a]pyrrolo[3,4-c]carbazole]
9 | 0.149 µM | O=C(NCCCN1CCOCC1)OC1CCn2c3ccccc3c3c4c(c5c6ccccc6n(c5c32)C1)C(=O)NC4=O (centres unmarked) [Cpd 42, 12,13-{2-[(3-morpholin-4-yl-prop-1-yl)carbamoyloxy]-butan-1,4-yl}-12,13-dihydro-5,7-dioxo-6H-indolo[2,3-a]pyrrolo[3,4-c]carbazole]
10 | 0.007 µM | O=C1NCc2c1c1c3ccccc3n3c1c1c2c2ccccc2n1CC(O)C(O)C3 (centres unmarked) [Cpd 14, 12,13-(2,3-dihydroxy-butan-1,4-yl)-6,7,12,13-tetrahydro-5-oxo-5H-indolo[2,3-a]pyrrolo[3,4-c]carbazole]
11 | 0.065 µM | CN(C)c1ccc(CNC(=O)OC2Cn3c4ccccc4c4c5c(c6c7ccccc7n(c6c43)CC2O)C(=O)NC5=O)cc1 (centres unmarked) [Cpd 93, 12,13-{2-[(4-dimethylamino-benzyl)carbamoyloxy]-3-hydroxy-butan-1,4-yl}-12,13-dihydro-5,7-dioxo-6H-indolo[2,3-a]pyrrolo[3,4-c]carbazole]
12 | 0.014 µM | O=C1NCc2c1c1c3cc(/C=C/Cn4ccnc4)ccc3n3c1c1c2c2ccccc2n1CC(CO)C3 (centres unmarked) [Cpd 219, 3-[(1E)-3-1H-imidazol-1-yl-prop-1-en-1-yl]-12,13-(2-hydroxymethyl-propan-1,3-yl)-6,7,12,13-tetrahydro-5-oxo-5H-indolo[2,3-a]pyrrolo[3,4-c]carbazole]
13 | 0.069 µM | CN(C)CCNC(=O)OCC1(O)Cn2c3ccccc3c3c4c(c5c6ccccc6n(c5c32)C1)C(=O)NC4 (centres unmarked) [Cpd 173, 12,13-{2-hydroxy-2-[(2-dimethylamino-ethyl)carbamoyloxymethyl]-propan-1,3-yl}-6,7,12,13-tetrahydro-5-oxo-5H-indolo[2,3-a]pyrrolo[3,4-c]carbazole]
14 | 0.019 µM | O=C1NCc2c1c1c3cc(/C=N/NC4=NCCN4)ccc3n3c1c1c2c2ccccc2n1CC(O)C(O)C3 (centres unmarked) [Cpd 200, 3-[(4,5-dihydro-1H-imidazol-2-yl)hydrazomethylene]-12,13-(2,3-dihydroxy-butan-1,4-yl)-6,7,12,13-tetrahydro-5-oxo-5H-indolo[2,3-a]pyrrolo[3,4-c]carbazole]
15 | 0.436 µM | O=C1NC(=O)c2c1c1c3ccccc3n3c1c1c2c2ccccc2n1CC(OC(=O)N1CCN(C(c2ccccc2)c2ccccc2)CC1)C(O)C3 (centres unmarked) [Cpd 103, 12,13-{2-[(4-benzhydryl-piperazin-1-yl)carbonyloxy]-3-hydroxy-butan-1,4-yl}-12,13-dihydro-5,7-dioxo-6H-indolo[2,3-a]pyrrolo[3,4-c]carbazole]
16 | 0.066 µM | O=C(NCc1ccc2c(c1)OCO2)OC1CCn2c3ccccc3c3c4c(c5c6ccccc6n(c5c32)C1)C(=O)NC4=O (centres unmarked) [Cpd 46, 12,13-{2-[(benzo[1,3]dioxol-5-yl-methyl)carbamoyloxy]-butan-1,4-yl}-12,13-dihydro-5,7-dioxo-6H-indolo[2,3-a]pyrrolo[3,4-c]carbazole]
17 | > 50 µM | O=C1NCc2c1c1c3cc(CN4CCOCC4)ccc3n3c1c1c2c2cc(CN4CCOCC4)ccc2n1CC(CO)C3 (centres unmarked) [Cpd 214, 3,9-bis-(morpholin-4-ylmethyl)-12,13-(2-hydroxymethyl-propan-1,3-yl)-6,7,12,13-tetrahydro-5-oxo-5H-indolo[2,3-a]pyrrolo[3,4-c]carbazole]
18 | 0.013 µM | O=Cc1ccc2c(c1)c1c3c(c4c5cc(Br)ccc5n5c4c1n2CC(CO)C5)C(=O)NC3 (centres unmarked) [Cpd 207, 3-bromo-9-formyl-12,13-(2-hydroxymethyl-propan-1,3-yl)-6,7,12,13-tetrahydro-5-oxo-5H-indolo[2,3-a]pyrrolo[3,4-c]carbazole]
19 | 0.161 µM | O=C1NCc2c1c1c3ccccc3n3c1c1c2c2ccccc2n1CC(O)(COC(=O)N1CCOCC1)C3 (centres unmarked) [Cpd 138, 12,13-[2-hydroxy-2-(morpholin-4-yl-carbonyloxymethyl)-propan-1,3-yl]-6,7,12,13-tetrahydro-5-oxo-5H-indolo[2,3-a]pyrrolo[3,4-c]carbazole]

Row | SMILES | IC50
20 | CC(C)(C)OC(=O)NC1CCN(C(=O)OCC2(O)Cn3c4ccccc4c4c5c(c6c7ccccc7n(c6c43)C2)C(=O)NC5)CC1 (centres unmarked) [Cpd 175, 12,13-{2-hydroxy-2-[(4-t-butoxyamido-piperidin-1-yl)carbonyloxymethyl]-propan-1,3-yl}-6,7,12,13-tetrahydro-5-oxo-5H-indolo[2,3-a]pyrrolo[3,4-c]carbazole] | 0.244 µM
